Measured values: PMC8536644, “Enigmatic mechanism of the N-vinylpyrrolidone hepatocarcinogenicity in the rat” (Archives of Toxicology, 2021)
Where “and” joins values, the source holds several entries; their conditions need not be identical. Equal entries are not always repeated.

Experiments:
[1] = system: rats; design: method as in Klimisch et al. [1997b]; conditions: ref Klimisch et al. [1997b], cited from earlier work
[2] = system: rat liver; test: Glutathione recycling assay (tGSH, GSSG) in liver; format: in vivo; conditions: for GSH (GSH recycling assay), individual animal / GSSG, individual animal / tGSH, individual animal / GSH (GSH recycling assay), group (mean ± SD) / GSSG, group (mean ± SD) / tGSH, group (mean ± SD): rat liver; for GSH (GSH recycling assay), group (mean ± SD) / GSSG, group (mean ± SD) / tGSH, group (mean ± SD): n = 6;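 on GSSG, group (mean ± SD): Nanomoles per gram liver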;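 on GSSG, individual animal: Nanomoles per gram liver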;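 on Mean GSSG concentration: Nanomoles per gram liver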
Experimental: Glutathione recycling assay was adapted from the method described by Gallagher ([1994]) and performed using the 14 000 g supernatant fraction derived from the 5-SSA-treated liver homogenate of the NVP-exposed male Wistar rats as described above under “Non-protein-bound sulfhydryl groups”. The obtained samples were diluted fivefold with the 5% 5-SSA solution.
For determination of total glutathione (tGSH, i.e. GSH + GSSG) a GSH control (640 µM in 5% 5-SSA, diluted by a factor of 4 for application in the assay) and a tGSH control (200 µM in 5% 5-SSA, containing 10% GSSG) were treated the same way as the samples. To 5 µL of sample, controls as well as GSH standards (dissolved in 5% 5-SSA solution) 190 µL tGSH master mix, consisting of phosphate/EDTA buffer (125 mM KH2PO4/7 mM EDTA, pH 7.5), 0.4 mM NADPH and 0.5 U/L glutathione reductase suspension, were added. Determinations were performed in triplicates. The reaction was started by adding 5 µL of 24 mM DTNB in methanol. The absorption at λ = 412 nm was measured every 60 s for 5 min.
For determination of GSSG a control (20 μM GSSG, 160 μM GSH) was treated the same way as the samples. 125 µL sample, control, GSSG standards and blank, respectively, were combined with 5 µL 2-vinylpyridine (Sigma Aldrich, Steinheim, Germany). 20 µL of […] triethylamine was pipetted to the upper rim of the vessel such that after mixing the pH value was between 7 and 7.5 and reaction was allowed to proceed in the thermomixer at 600 rpm for 1 h at 26 °C in order to derivatize the GSH in the sample. The determination of GSSG was then performed in analogy to the determination of tGSH described above. The absorption at λ = 412 nm was measured every 60 s for 10 min.

[3] = system: (liver) DNA; design: method as in Inveresk Research International (IRI) [1986]; conditions: male CD rats, i.p. 14C-NVP 150 and 300 mg/kg; ref Inveresk Research International (IRI) [1986]; cited from earlier work
[4] = system: rat liver; test: Liver histology, Oil Red O staining; format: in vivo; conditions: high dose group (20 ppm)
Experimental: ORO staining was performed essentially according to Lillie and Ashburn ([1943]), specifically under the following conditions:
Parts of the frozen (− 80 °C) livers from rats treated with 0, 5, 10 or 20 ppm NVP were soaked in tap water and then thoroughly frozen at − 40 °C. Subsequently they were cut at -10 to -15 °C into slices of 12–20 µm and stored in water until starting the staining procedure. The slices were then left for approximately 5 min in 60% isopropanol, subsequently stained for 10–12 min in ORO solution (5 g ORO dissolved in 1 L isopropanol, to this solution added 400 mL H2O, left at room temperature for 24 h and then filtered) and subsequently differentiated by immersing 2–3 times into 60% isopropanol. Afterwards they were left in water until they collected at the surface. Finally the slices were stained for 3 min in hematoxylin solution (1 g hematoxylin, 50 g KAl(SO4)2, 50 g chloral hydrate, 1 g citric acid/L H2O, then for maturation 0.2 g NaIO3/L). Subsequently they were left at least 10 min in water. Finally, the slices were transferred to microscope slides and covered with 40–60 °C warm Kaiser’s glycerol gelatin.

[5] = 5 ppm NVP inhalation, animals 7-12
[6] = 10 ppm NVP inhalation, animals 13-18
[7] = 20 ppm NVP inhalation, animals 19-24

C=CN1CCCC1=O [NVP, N-vinylpyrrolidone]
Change of total non-protein-bound sulfhydryls ([1]; Sprague–Dawley rats, inhalation 3 months, 10 ppm): increase | Concentration at which erythrocytes, hematocrit and hemoglobin were reduced ([1]; rats, inhalation): 15 ppm | Concentration with foci of altered hepatocytes ([1]; rats, inhalation): 5 ppm | LOAEC, liver (increased gamma-glutamyl transpeptidase and glutathione) ([1]; rats, inhalation): 5 ppm | LOAEC, nasal mucosa (inflammation, olfactory epithelium atrophy, basal cell hyperplasia) ([1]; rats, inhalation): 5 ppm | Dose with necrosis of single centrilobular liver cells ([1]; subchronic studies in rats and mice): 45 ppm | GSH/GSSG ratio ([2]; 5 ppm): 42.2 ± 18.4 | Mean GSSG concentration ([2]; 5 ppm): 116 ± 32 nmol/g liver | Proportion of reduced glutathione GSH within total glutathione tGSH ([2]; 5 ppm): 95.0% ± 1.4% | GSH/GSSG ratio ([2]; 10 ppm): 31.2 ± 4.6 | Mean GSSG concentration ([2]; 10 ppm): 135 ± 12 nmol/g liver | Proportion of reduced glutathione GSH within total glutathione tGSH ([2]; 10 ppm): 93.9% ± 0.8% | GSH/GSSG ratio ([2]; 20 ppm): 30.0 ± 4.6 | Mean GSSG concentration ([2]; 20 ppm): 136 ± 22 nmol/g liver | Proportion of reduced glutathione GSH within total glutathione tGSH ([2]; 20 ppm): 93.6% ± 0.9% | GSH concentration (GSH recycling assay), range ([2]; NVP-exposed male rats, 5-20 ppm): 3.06–5.48 µmol/g liver | GSH (GSH recycling assay), individual animal [2, 5]: 3.84 µmol/g liver and 5.48 µmol/g liver and 4.63 µmol/g liver and 3.93 µmol/g liver and 5.04 µmol/g liver and 4.00 µmol/g liver | GSSG, individual animal [2, 5]: 133 nmol/g liver and 71 nmol/g liver and 144 nmol/g liver and 114 nmol/g liver and 149 nmol/g liver and 87 nmol/g liver | tGSH, individual animal [2, 5]: 4.10 µmol/g liver and 5.63 µmol/g liver and 4.92 µmol/g liver and 4.16 µmol/g liver and 5.33 µmol/g liver and 4.17 µmol/g liver | GSH (GSH recycling assay), group (mean ± SD) ([2]; 5 ppm NVP inhalation): 4.49 ± 0.68 µmol/g liver | GSSG, group (mean ± SD) ([2]; 5 ppm NVP inhalation): 116 ± 32 nmol/g liver | tGSH, group (mean ± SD) ([2]; 5 ppm NVP inhalation): 4.72 ± 0.67 µmol/g liver | GSH (GSH recycling assay), individual animal [2, 6]: 3.44 µmol/g liver and 3.95 µmol/g liver and 4.70 µmol/g liver and 4.98 µmol/g liver and 4.41 µmol/g liver and 3.65 µmol/g liver | GSSG, individual animal [2, 6]: 132 nmol/g liver and 120 nmol/g liver and 151 nmol/g liver and 147 nmol/g liver and 126 nmol/g liver | tGSH, individual animal [2, 6]: 3.70 µmol/g liver and 4.21 µmol/g liver and 4.94 µmol/g liver and 5.28 µmol/g liver and 4.70 µmol/g liver and 3.91 µmol/g liver | GSH (GSH recycling assay), group (mean ± SD) ([2]; 10 ppm NVP inhalation): 4.19 ± 0.61 µmol/g liver | GSSG, group (mean ± SD) ([2]; 10 ppm NVP inhalation): 135 ± 12 nmol/g liver | tGSH, group (mean ± SD) ([2]; 10 ppm NVP inhalation): 4.46 ± 0.62 µmol/g liver | GSH (GSH recycling assay), individual animal [2, 7]: 4.45 µmol/g liver and 4.57 µmol/g liver and 3.06 µmol/g liver and 3.48 µmol/g liver and 4.31 µmol/g liver and 4.35 µmol/g liver | GSSG, individual animal [2, 7]: 151 nmol/g liver and 130 nmol/g liver and 106 nmol/g liver and 142 nmol/g liver and 121 nmol/g liver and 167 nmol/g liver | tGSH, individual animal [2, 7]: 4.75 µmol/g liver and 4.83 µmol/g liver and 3.27 µmol/g liver and 3.77 µmol/g liver and 4.55 µmol/g liver and 4.68 µmol/g liver | GSH (GSH recycling assay), group (mean ± SD) ([2]; 20 ppm NVP inhalation): 4.04 ± 0.62 µmol/g liver | GSSG, group (mean ± SD) ([2]; 20 ppm NVP inhalation): 136 ± 22 nmol/g liver | Binding of NVP or its metabolites to (liver) DNA [3]: no binding | Lipid-staining (oil red O) of centrilobular hepatocellular fatty change [4]: positive for only one male and one female animal
